Data taken from patent publication US20220016146A1, “METHOD OF TREATING AGE-RELATED MACULAR DEGENERATION” (ZHUHAI QiWEl BIO-TECHNOLOGY LTD., priority 2018, published 2022).

Assays:
[1] = system: Bacillus megaterium; assay: Antibiotic sensitivity testing in petri dishes (MIC method); assay type: cell-based; conditions: FIG. 1; for sensitivity of Bacillus megaterium to antimicrobial agent / control of growth in vitro: 1*10^7 bacteria per culture, 37° C., 24 h
Procedure: The bacterial culture medium (HuanKai Microbial, Guangzhou, China) containing peptone 5 g, beef extract 3 g, NaCl 5 g, agar 15 g, and MnSO4 5 mg in 1 L ddH2O (pH=7.2) was prepared in conical flask (Drtech, Guangzhou, China) and was sterilized in the autoclave (HIRAYAMA, HEV-50, Japan) at 121° C. for 30 min. Antibiotics (ampicillin, vancomycin, neomycin, metronidazole, and tetracycline, purchased from Sigma, USA) at various concentrations were added into cooled medium. Bacillus megaterium (total 1*10^7 per culture) was cultured in the incubator (HettCube 200, Germany) at 37° C. for 24 h.
To test whether antibiotics can control the growth of Bacillus megaterium in vitro and in vivo, an antibiotic sensitivity screening test in petri dishes was carried out. The sensitivity of Bacillus megaterium to several major antimicrobial agents including Ampicillin, vancomycin, neomycin, metronidazole, and tetracycline were examined using the minimum inhibitory concentration (MIC) method.

[2] = system: Bacillus megaterium; assay type: in vivo, monkey
Procedure: The inventors collected both AH and vitreous humor (VH) specimens from AMD patients and were able to detect B. megaterium DNA in both uncultured and cultured samples. The inventors further examined whether subretinal inoculation of AH and VH cultures which had B. megaterium, as well as the cultured single species of B. megaterium led to AMD like pathology in macaque. Briefly, about 20 CFU of bacteria (in 20 μl PBS) from AH, VH, and B. megaterium cultures were injected subretinally and PBS was used as a control. The fundus examination of macaque eye was performed before (Day 0) and after bacterial inoculation on Day 1, Day 3, Day 35 as well as Day 47. The PBS injection left only visible scar on the retina, while all bacterial inoculations led to drusenoid lesions on retinal tissues. Drusen-like nodules were also visible under the RPE layer. Fluorescence in situ hybridization results also located B. megaterium in drusenoid but not in the normal tissues post inoculation. An elevation in the expression of C5A, CFH, CASPASE1, and NLRP3 proteins was also detected in the B. megaterium infected drusenoid lesion and para-lesion tissues as compared to the uninfected normal retina in macaque.
Next, Bacillus megaterium subretinal inoculation model was used to test whether antibiotics might be able to change the bacteria-induced drusenoid pathology in monkey retinal tissues.

Question: `Cc1ncc([N+](=O)[O-])n1CCO` [metronidazole] was tested. Which “fold less effective in controlling the growth of Bacillus megaterium” value ([1]; compared with neomycin) did it give?
Answer: 10000 fold

Question: Which “sensitivity of Bacillus megaterium to antimicrobial agent / control of growth in vitro” value [1] does the source give for `CN[C@H](CC(C)C)C(=O)N[C@H]1C(=O)N[C@@H](CC(N)=O)C(=O)N[C@H]2C(=O)N[C@H]3C(=O)N[C@H](C(=O)N[C@H](C(=O)O)c4cc(O)cc(O)c4-c4cc3ccc4O)[C@H](O)c3ccc(c(Cl)c3)Oc3cc2cc(c3O[C@@H]2O[C@H](CO)[C@@H](O)[C@H](O)[C@H]2O[C@H]2C[C@](C)(N)[C@H](O)[C@H](C)O2)Oc2ccc(cc2Cl)[C@H]1O` [vancomycin] here?
Answer: able to inhibit the growth

Question: What about the “size of drusenoid lesion in retinal tissue” value ([2]; intravitreous 0.5 mg, one injection on Day 2 post bacterial inoculation, monkey, FIG. 2) of the same compound?
Answer: reduction in the size of drusenoid lesion

Question: Which “sensitivity of Bacillus megaterium to antimicrobial agent / control of growth in vitro” value [1] does the source give for neomycin here?
Answer: most sensitive

Question: And the “ocular complications after intraocular administration” value ([2]; intraocular administration in monkey (data not shown))?
Answer: significant ocular complications including ophthalmatrophia
